According to paper PMC10523607 (Proceedings of the National Academy of Sciences of the …, 2023):

Target: GPR34 (Homo sapiens, UniProt Q9UPC5)
Test: Tango assay
Format: cell-based
Details: compared with Hit-1 or YL-365

Chain of GPR34 (Q9UPC5 whole entry): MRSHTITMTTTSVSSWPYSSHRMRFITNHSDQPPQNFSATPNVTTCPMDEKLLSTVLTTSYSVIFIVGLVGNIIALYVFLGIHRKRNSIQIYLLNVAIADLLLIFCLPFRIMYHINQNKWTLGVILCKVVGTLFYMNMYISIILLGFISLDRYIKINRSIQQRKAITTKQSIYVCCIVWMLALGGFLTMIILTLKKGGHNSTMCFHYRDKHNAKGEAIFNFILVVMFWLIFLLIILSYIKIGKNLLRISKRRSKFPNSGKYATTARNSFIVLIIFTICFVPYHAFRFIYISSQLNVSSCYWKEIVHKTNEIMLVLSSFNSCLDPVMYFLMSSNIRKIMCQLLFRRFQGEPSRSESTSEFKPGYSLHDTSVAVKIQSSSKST

- Potency against GPR34 in words (SAR): showed antagonistic effect
Compound: NC(=O)C1(NC(=O)Cc2ccc(OCc3ccccc3)cc2)CCN(C(=O)c2ccc(-c3cccc(Cl)c3)cc2)CC1 [C-27]
